According to US7235263B2, “Processes for controlling microbial organic compound production” (Kimberly-Clark Worldwide, Inc., priority 2001, dated 2007):

Columns and labels:
[1] = system: Proteus mirabilis (ATCC 29906); experiment: Ammonia production by facultatively grown Proteus mirabilis in urine:TSB (ammonia probe); type: cell-based; settings: for % Reduction of Ammonia: vs urine:TSB:facultative without mannitol peroxide
Method: Proteus mirabilis was taken from a TSB culture (described in (1) above) and grown under various conditions for use in the Examples. For bacteria to be grown under aerobic conditions, 50 microliters of Proteus mirabilis was taken from a TSB culture prepared as described above and inoculated into a 50 mL volume of a freshly made 9:1 (by volume) pooled adult female urine:TSB mixture into a 250 mL shake flask. This mixture was rotated at 250 rpm at 37° C. overnight to grow the bacteria. For bacteria to be grown under facultative conditions, 10 microliters of Proteus mirabilis was taken from a TSB culture prepared as described above and inoculated into a 10 mL volume of a freshly made 9:1 (by volume) pooled adult female urine:TSB mixture into a 15 mL tube. The tube was loosely fitted with a screw cap, and held stationary at 37° C. overnight to grow the bacteria. For bacteria to be grown under anaerobic conditions, 10 microliters of Proteus mirabilis was taken from a TSB culture prepared as described above and inoculated into a 10 mL volume of a freshly made 9:1 (by volume) pooled adult female urine:TSB mixture into a 15 mL conical tube. The tube was purged with nitrogen and a screw cap tightly closed, and then was held stationary overnight at 37° C. to grow the bacteria.
Upon completion of the respective incubation periods of the samples, optical density measurements of each sample were taken as described above and ammonia production of the growth solutions was measured using an ammonia combination probe (Beckman, Fullerton, Calif.) by record mV using an Orion pH meter (Orion, Boston, Mass.). Orion ammonia standards (Orion) were used to calibrate the instrument.
In this Example, six different samples were prepared for analysis. The first sample comprised a urine:TSB mixture that was prepared in the same manner as that described in Example 1. […] The tube was loosely fitted with a screw cap, and held stationary at 37° C. overnight to grow the bacteria. […] The fifth sample comprising urine:TSB:Proteus mirabilis (facultatively grown) was prepared in the same manner as that described in Example 1.

interleukin-8 (IL-8) = experiment: IL-8 release by EPIOCULAR skin culture challenged with sample; type: cell-based, human; settings: for IL-8: Table 5, 6 hours; for IL-8 (n = 3): Table 6
From the text: In order to evaluate the amount of skin irritation by various samples prepared in the Examples, a human skin culture was selected to model the response of the human epidermis to treated and untreated bacterial metabolized urine:TSB mixture. The tissue model selected was an EPIOCULAR Tissue Model (OCL-200 propagated without hydrocortisone), and was purchased from MatTek Corporation (Ashland, Mass.). This model consists of normal, human-derived epidermal keratinocytes, which have been cultured to form a stratified, squamous epithelium similar to that found in the cornea. The epidermal cells, which are cultured on specially prepared cell culture inserts using a serum free medium, differentiate to form a multi-layered structures which closely parallel the corneal epithelium. Experiments using this skin culture were conducted in six parallel wells. Each well contained one milliliter of pre-warmed media that was the same as the model skin culture media. The plates were then incubated in a 37° C., 5% carbon dioxide atmosphere for thirty minutes. After incubation, 25 microliters of the sample were applied to the surface of the model skin culture after removing any residual media. After application of the test solution, the well plates were incubate for 6 hours in the 37° C., 5% carbon dioxide atmosphere. At the end of 6 hours, the well plates were removed from the incubator and the underlying media removed and stored at −80° C. The response of the skin culture to test the compositions/control and the insult solution is determined by measuring the amount of interleukin-1 alpha (IL-1a) and/or interleukin-8 (IL-8). IL-1a and IL-8 were quantified using an Interleukin-1 alpha or Interleukin-8 Quantikine Kit available from R&D Systems (Minneapolis, Minn.).

Proteus mirabilis = experiment: Growth of aerobically cultivated Proteus mirabilis in urine:TSB, microtiter serial dilution, optical density; type: cell-based; settings: for optical density (bacterial cell growth): 48 hours at 37° C., aerobic, listed as 7 Hr.
Method: Proteus mirabilis was cultured in TSB as described in Example 1 and transferred to a urine:TSB mixture (9:1) and incubated under aerobic conditions as described in Example 1. […] In a 96-well microtiter plate with a lid, 150 microliters of each 10% solution was introduced into the first and second columns of the wells. Using a multi-channel pipette, 150 microliters of urine:TSB mixture was introduced into each well except the first column. Beginning at the second column of wells, serial dilutions were made by removing 150 microliters from the second column and transferring it to the third column. The mixture was mixed by pipetting up and down three times. The serial dilutions continued across each column of the plate and, after column 11, 150 microliters was discarded leaving column 12 as the 0% solution. Each well was then inoculated with 1 microliter of Proteus mirabilis, except for the negative control rows. One to three drops of anti-fogging solution was place on the plate lids with a cotton applicator, and allowed to air dry. The mixtures were incubated for 48 hours at 37° C. under aerobic conditions. After incubation of the samples, each was analyzed for bacterial cell growth utilizing the optical density procedure as set forth in Example 1.

[2] = Table 4, 5% mannitol peroxide, facultative
[3] = Table 4, 10% mannitol peroxide, facultative
[4] = Table 7, 5% mannitol peroxide, facultative

With mannitol peroxide the Ammonia/Cell ([1]; Table 3, 5% (w/v) mannitol peroxide, facultative bacteria) was 1.6 ppm/CFU E+8, the “Ammonia Produced (n = 3)” value ([1]; Table 3, 5% (w/v) mannitol peroxide, urine:TSB, facultative bacteria) was 34.5 ± 12.6 ppm and the Ammonia/Cell ([1]; Table 3, 10% mannitol peroxide, facultative bacteria) was 0.01 ppm/CFU E+8. For the same substance, the “Ammonia Produced (n = 3)” value ([1]; Table 3, 10% mannitol peroxide, urine:TSB, facultative bacteria) was 13.9 ± 0.3 ppm, the “Ammonia (n = 3)” value [1, 2] was 34.5 ± 12.6 ppm and the Ammonia/Cell [1, 2] was 1.6 ppm/CFU E+8. The “% Reduction of Ammonia” value ([1]; Table 4, 5% mannitol peroxide) was 53.6%, the “Ammonia (n = 3)” value [1, 3] was 13.9 ± 0.3 ppm and the Ammonia/Cell [1, 3] was 0.01 ppm/CFU E+8. The “% Reduction of Ammonia” value ([1]; Table 4, 10% mannitol peroxide) was 98.5%, the “Ammonia Produced (n = 3)” value [1, 4] was 434.5 ± 7.5 ppm and the Ammonia/Cell [1, 4] was 43.84 ppm/10E8CFU. The IL-8 (interleukin-8 (IL-8); facultative Proteus mirabilis grown with 5% mannitol peroxide) was 27224.30 ± 2432.83 pg/mL, the IL-8 (interleukin-8 (IL-8); facultative Proteus mirabilis grown with 10% mannitol peroxide) was 15884.57 ± 839.53 pg/mL and the “IL-8 (n = 3)” value (interleukin-8 (IL-8); facultative E. coli grown with 5% MP) was 1769.31 ± 103.9 pg/mL. For the same substance, the “IL-8 (n = 3)” value (interleukin-8 (IL-8); facultative E. coli grown with 10% MP) was 1336.69 ± 60.84 pg/mL, the “optical density (bacterial cell growth)” value (Proteus mirabilis; 0.0097% in urine:TSB) was 0.98 and the “optical density (bacterial cell growth)” value (Proteus mirabilis; 0.0195% in urine:TSB) was 0.98. The “optical density (bacterial cell growth)” value (Proteus mirabilis; 0.0391% in urine:TSB) was 0.95, the “optical density (bacterial cell growth)” value (Proteus mirabilis; 0.0785% in urine:TSB) was 0.98 and the “optical density (bacterial cell growth)” value (Proteus mirabilis; 0.156% in urine:TSB) was 1.00. The “optical density (bacterial cell growth)” value (Proteus mirabilis; 0.313% in urine:TSB) was 0.96, the “optical density (bacterial cell growth)” value (Proteus mirabilis; 0.625% in urine:TSB) was 0.99 and the “optical density (bacterial cell growth)” value (Proteus mirabilis; 1.25% in urine:TSB) was 0.98. The “optical density (bacterial cell growth)” value (Proteus mirabilis; 2.5% in urine:TSB) was 0.97, the “optical density (bacterial cell growth)” value (Proteus mirabilis; 5% in urine:TSB) was 0.90 and the “optical density (bacterial cell growth)” value (Proteus mirabilis; 10% in urine:TSB) was 0.82. The “effect on the growth of the bacteria” value (Proteus mirabilis; heated at least about 7 hours at about 97° C. during synthesis, even at elevated concentrations) was “little effect on the growth of the bacteria”.
